Assay results reported in patent US20230172204A1 (BASF SE, priority 2020, published 2023).

Tests used:
[1] = test system: Phakopsora pachyrhizi (F129L); assay: Protective control of soybean rust on soybeans (PHAKPA P6); type: in vivo; conditions: for % PHAKPA (F129L) Disease level P6 at 4 ppm: protective P6, 4 ppm; for % PHAKPA (F129L) Disease level P6 at 4 ppm / % PHAKPA (F129L) Disease level P6 at 16 ppm: soybean rust F129L; for % PHAKPA (F129L) Disease level P6 at 16 ppm: protective P6, 16 ppm
[2] = test system: Phakopsora pachyrhizi (F129L); assay: Protective control of soybean rust on soybeans (PHAKPA P2); type: in vivo; conditions: for % PHAKPA (F129L) Disease level P2 at 4 ppm: protective P2, 4 ppm; for % PHAKPA (F129L) Disease level P2 at 4 ppm / % PHAKPA (F129L) Disease level P2 at 16 ppm: soybean rust F129L; for % PHAKPA (F129L) Disease level P2 at 16 ppm: protective P2, 16 ppm; for PHAKPA (F129L) Disease level (%) P2 at 4 ppm / PHAKPA (F129L) Disease level (%) P2 at 16 ppm: P2 protective, % diseased leaf area
[3] = P6 protective, % diseased leaf area

SMILES	% PHAKPA (F129L) Disease level P6 at 4 ppm [1] [%]	% PHAKPA (F129L) Disease level P6 at 16 ppm [1] [%]	% PHAKPA (F129L) Disease level P2 at 4 ppm [2] [%]	% PHAKPA (F129L) Disease level P2 at 16 ppm [2] [%]	PHAKPA (F129L) Disease level (%) P6 at 16 ppm [1, 3] [%]	PHAKPA (F129L) Disease level (%) P2 at 4 ppm [2] [%]	PHAKPA (F129L) Disease level (%) P6 at 4 ppm ([1]; P6 protective, 4 ppm, % diseased leaf area) [%]	PHAKPA (F129L) Disease level (%) P2 at 16 ppm [2] [%]
CNC(=O)/C(=N/OC)c1cccc(C)c1CO/N=C(\C)c1ccc(F)c(F)c1OC(F)(F)F [compound 451]	2	0	1	0	–	–	–	–
CO/N=C(/C(=O)OC)c1cccc(C)c1CO/N=C(/c1ccc(Cl)cc1)C(F)F [Ex. 20]	97	18	73	29	–	–	–	–
CO/N=C(/C(=O)OC)c1cccc(C)c1CO/N=C(\C)c1cc(-c2ccccc2)cc(C(F)(F)F)c1 [compound 144]	92	90	87	80	–	–	–	–
CO/N=C(/C(=O)OC)c1cccc(C(F)F)c1CO/N=C(\C)c1cccc(C(F)(F)F)c1 [Ex. 24]	4	28	36	60	–	–	–	–
CNC(=O)/C(=N/OC)c1cccc(C)c1CO/N=C(/c1cccc(C)c1)C1CC1 [drawing 975, reference compound]	–	–	–	–	67	67	–	–
CNC(=O)/C(=N/OC)c1cccc(C)c1CO/N=C(\C)c1cc(C#N)cc(C(F)(F)F)c1 [compound 46]	90	57	63	50	–	–	–	–
CO/N=C(/C(=O)OC)c1cccc(C)c1CO/N=C(\C)c1ccccc1C(C)C [compound 218]	100	100	100	87	–	–	–	–
CO/N=C(/C(=O)OC)c1cccc(C)c1CO/N=C(\C)c1cc(C(F)(F)F)cc(C(F)(F)F)c1 [compound 34]	90	83	100	90	–	–	–	–
C#Cc1cc(/C(C)=N/OCc2c(C)cccc2/C(=N\OC)C(=O)OC)cc(C(F)(F)F)c1 [compound 143]	15	0	4	0	–	–	–	–
CO/N=C(/C(=O)OC)c1cccc(C)c1CO/N=C(\C)c1cccc(C(C)(F)F)c1 [compound 302]	47	3	47	4	–	–	–	–
CNC(=O)/C(=N/OC)c1cccc(C)c1CO/N=C(\C)c1ccc(-c2ccccc2)cc1OC(F)(F)F [compound 435]	87	60	93	57	–	–	–	–
CNC(=O)/C(=N/OC)c1cccc(C)c1CO/N=C(\C)c1ccccc1C#N [compound 225]	100	97	83	27	–	–	–	–
CCc1ccc(/C(C)=N/OCc2c(C)cccc2/C(=N\OC)C(=O)NC)cc1 [Ex. 165]	17	0	0	0	–	0	27	–
C#Cc1cc(F)cc(/C(C)=N/OCc2c(C)cccc2/C(=N\OC)C(=O)NC)c1 [compound 55]	13	5	3	1	–	–	–	–
CNC(=O)/C(=N/OC)c1cccc(C)c1CO/N=C(\C)c1ccc(/C(C)=N\OC)cc1C(F)(F)F [compound 420]	12	1	8	0	–	–	–	–
CO/N=C(/C(=O)OC)c1ccccc1CO/N=C(/c1ccc(Cl)cc1)C(F)F [reference compound]	–	–	–	–	90	–	–	100
CNC(=O)/C(=N/OC)c1cccc(C)c1CO/N=C(\C)c1ccccc1COC [compound 277]	100	100	100	60	–	–	–	–
CNC(=O)/C(=N/OC)c1cccc(C)c1CO/N=C(\C)c1ccccc1C(C)C [compound 220]	100	77	90	30	–	–	–	–
CNC(=O)/C(=N/OC)c1cccc(C)c1CO/N=C(\C)c1cc(C2CC2)cc(C(F)(F)F)c1 [compound 150]	70	29	56	8	–	–	–	–
CNC(=O)/C(=N/OC)c1ccccc1CO/N=C(\C)c1cccc(C(F)F)c1 [reference compound]	–	–	–	–	35	–	–	16
CNC(=O)/C(=N/OC)c1cccc(C)c1CO/N=C(\C)c1c(Cl)cccc1Cl [compound 173]	97	17	100	53	–	–	–	–
CO/N=C(/C(=O)OC)c1cccc(C)c1CO/N=C(\C)c1cc(F)ccc1Br [compound 254]	100	100	100	77	–	–	–	–
CO/C=C(/C(=O)OC)c1cccc(C)c1CO/N=C(\C)c1ccc(-c2ccc(F)cc2)cc1C(F)(F)F [compound 432]	13	3	12	0	–	–	–	–
C=Cc1cccc(/C(=N\OC)C(=O)NC)c1CO/N=C(\C)c1cccc(C(F)(F)F)c1 [compound 14]	11	1	6	0	–	–	–	–
CNC(=O)/C(=N/OC)c1cccc(C)c1CO/N=C(\C)c1ccccc1-c1ccccc1 [compound 124]	92	75	98	87	–	–	–	–
CO/N=C(/C(=O)OC)c1cccc(C)c1CO/N=C(\C)c1ccc(Cl)c(Cl)c1 [compound 40]	63	22	40	18	–	–	–	–
CO/N=C(/C(=O)OC)c1cccc(C)c1CO/N=C(\C)c1ccccc1C1CC1 [compound 217]	93	100	97	53	–	–	–	–
CO/N=C(/C(=O)OC)c1cccc(C)c1CO/N=C(\C)c1cc(F)ccc1F [compound 118]	32	0	10	0	–	–	–	–
CNC(=O)/C(=N/OC)c1cccc(C)c1CO/N=C(\CC(C)C)c1cccc(C(F)(F)F)c1 [compound 235]	87	77	100	73	–	–	–	–
CO/N=C(/C(=O)OC)c1cccc(C)c1CO/N=C(\C)c1cccc(-c2cc(C)on2)c1 [compound 43]	97	87	100	100	–	–	–	–
